Measurements from patent US8013153B2, “Substituted pyrimidine kinase inhibitors” (Janssen Pharmaceutica, N.V., priority 2006, dated 2011).

Test system: A431 human epidermoid carcinoma
Experiment: In vivo inhibition of tumor growth, A431 model
Set-up: species or system athymic nude mice
Conditions: 10 mg/kg daily, oral
Source text: Female Nu/Nu˜nuBR athymic nude mice (obtained from Charles River Laboratories), at the age of 5-6 weeks were feed water and an irradiated standard rodent diet ad libitum, and housed in specific pathogen-free conditions, according to the guidelines of the American Association for Accreditation of Lab Animal Care (AALAC).
Mice were implanted subcutaneously in the right hind flank with the various tumor cell suspensions in HBSS containing 10% FBS: A431 human epidermoid carcinoma (4×10^6 cells/mouse), HCT116 human colorectal carcinoma (4×10^6 cells/mouse) and A375 human skin melanoma (2×10^6 cells/mouse). […]
The tumors were allowed to establish growth for 10 to 14 days. Tumor size was measured every 3 days. […]
Tumor measurements and body weights were recorded individually (2×/week) during the treatment period of the experiment. Tumors were measured using a digital caliper. Data was recorded/calculated using Study Director software (StudyLog Systems, Inc.) and graphs were created in GraphPad Prizm.
The volume of each tumor in an animal was calculated according to the formula: (D×d^2)/2, where the diameters were determined from two orthogonal measurements on each tumor. The mean tumor volume was determined by averaging all tumor volumes in each group. The mean body weight was determined by averaging all body weights in each group. […]

`CCNC(=O)Nc1ccc(Oc2ncnc(N)c2/C=N/OC)cc1Cl` [Cpd 50, 1-{4-[6-amino-5-(methoxyimino-methyl)-pyrimidin-4-yloxy]-2-chloro-phenyl}-3-ethyl-urea] was tested, and the “inhibition of tumor growth” value was less than 50%.
